# US8628767B2, “Purine nucleoside phosphorylase as enzymatic activator of nucleoside prodrugs” (priority 2008, dated 2014)
# Substitutions are numbered along the chain they refer to. Numbers in names are those of the source. Where two headings read alike, the source gives them in different places.
# B1: Salmonella typhimurium PNP: purine nucleoside phosphorylase of Salmonella typhimurium (protein, UniProt Q8ZJV7 1-239, looked up)
# Purine nucleoside …: MATPHINAEMGDFADVVLMPGDPLRAKHIAETFLENVREVNNVRGMLGFTGTYKGRKISVMGHGMGIPSCSIYTKELITDFGVKKIIRVGSCGAVRMDVKLRDVVIGMGACTDSKVNRIRFKDHDFAAIADFDMVRNAVDAAKALGVDARVGNLFSADLFYSPDGEMFDVMEKYGVLGVEMEAAGIYGVAAEFGAKALTICTVSDHIRTHEQTTAAERQTTFNDMIKIALESVLLGDKE
# B2: E. coli PNP: wild-type E. coli purine nucleoside phosphorylase (protein, UniProt P0ABP8 2-239, looked up)
# Purine nucleoside …: ATPHINAEMGDFADVVLMPGDPLRAKYIAETFLEDAREVNNVRGMLGFTGTYKGRKISVMGHGMGIPSCSIYTKELITDFGVKKIIRVGSCGAVLPHVKLRDVVIGMGACTDSKVNRIRFKDHDFAAIADFDMVRNAVDAAKALGIDARVGNLFSADLFYSPDGEMFDVMEKYGILGVEMEAAGIYGVAAEFGAKALTICTVSDHIRTHEQTTAAERQTTFNDMIKIALESVLLGDKE
# B3: E. Coli PNP mutant M65V (protein, UniProt P0ABP8 2-239, looked up, variant M65V)
# Purine nucleoside …: B2 Purine nucleoside … with M64V
# B4: T. vaginalis PNP: wild-type Trichomonas vaginalis purine nucleoside phosphorylase, amino acid sequence SEQ ID NO: 5 (protein, listed as Trichomonas vaginalis)
# chain: MATPHNSAQVGDFAETVLMCGDPLRAKLIAETYLENPKLVNNVRGIQGYTGTYKGKPISVMGHGMGLPSICIYAEELYSTYKVKTIIRVGTCGAIDMDIHTRDIVIFTSAGTNSKINRIRFMDHDYPATASFDVVCALVDAAKELNIPAKVGKGFSTDLFYNPQTELAQLMNKFHFLAVEMESAGLFPIADLYGARAGCICTVSDHILHHEETTAEERQNSFQNMMKIALEAAIKL
# B5: human PNP: human purine nucleoside phosphorylase (protein, UniProt P00491 1-289, looked up)
# Purine nucleoside …: MENGYTYEDYKNTAEWLLSHTKHRPQVAIICGSGLGGLTDKLTQAQIFDYGEIPNFPRSTVPGHAGRLVFGFLNGRACVMMQGRFHMYEGYPLWKVTFPVRVFHLLGVDTLVVTNAAGGLNPKFEVGDIMLIRDHINLPGFSGQNPLRGPNDERFGDRFPAMSDAYDRTMRQRALSTWKQMGEQRELQEGTYVMVAGPSFETVAECRVLQKLGADAVGMSTVPEVIVARHCGLRVFGFSLITNKVIMDYESLEKANHEEVLAAGKQAAQKLEQFVSILMASIPLPDKAS
# Tests used:
# T. vaginalis PNP = experiment: Substrate cleavage by wild-type Tv-PNP (HPLC); format: biochemical, Trichomonas vaginalis; conditions: for rate of enzymatic cleavage by T. vaginalis PNP: 100 micromolar substrate, HPLC separation of base from nucleoside; for activity of Tv-PNP as compared to wild-type E. coli PNP: summary of Table 1
# Description: (§1) The method quantitatively measures the cleavage of substrates in vitro. The purine analog nucleosides (0.1 mM in 500 μl of 100 mM HEPES, pH 7.4, 50 mM potassium phosphate) are combined with 100 μg/ml Tv-PNP or wild-type E. coli PNP. The reaction mixtures are incubated at 25° C. for 1 hour, and the reactions stopped by boiling each sample for 2 minutes. Protein concentration and time of assay are varied depending on activity of enzyme for a particular substrate. Each sample is analyzed by reverse phase HPLC to measure conversion from substrate to product. The nucleoside and purine analogs are eluted from a Spherisorb ODSI (5 μm) column (Keystone Scientific, Inc., State College, Pa.) with a solvent containing 50 mM ammonium dihydrogen phosphate (95%) and acetonitrile (5%). Products are detected by absorbance at 254 nm, and are identified by comparing their retention times and absorption spectra with authentic control samples.
# Numerous compounds are tested for efficiency as substrate for Tv-PNP in parallel comparison with E. coli PNP. The compounds include various analogs of adenosine, of inosine, of MeP-dR, and of fluoro- or chloro-substituted adenosine. The enzymes are incubated with 100 micromolar of each compound listed in the table and the rate of enzymatic cleavage is determined by HPLC separation of the base from the nucleoside. […] It is appreciated that the greater biological activity of the Tv-PNP enzyme allows for greater activity in impairing abnormal cell growth when the Tv-PNP is used for treatment of pathological conditions using F-araA as a prodrug substrate.
# E. coli PNP = E. coli PNP (Escherichia coli, UniProt P0ABP8); experiment: Substrate cleavage by wild-type E. coli PNP (HPLC); format: biochemical; conditions: 100 micromolar substrate, HPLC separation of base from nucleoside
# Description: as §1
# Numerous compounds are tested for efficiency as substrate for Tv-PNP in parallel comparison with E. coli PNP. […] The enzymes are incubated with 100 micromolar of each compound listed in the table and the rate of enzymatic cleavage is determined by HPLC separation of the base from the nucleoside.
# [1] = Cleavage of MeP-dR by PNPs of various origins (HPLC); format: biochemical; conditions: 100 μM MeP-dR, enzymes of various purities
# [2] = Cleavage of F-araA by PNPs of various origins (HPLC); format: biochemical; conditions: for F-araA rate of cleavage: 100 μM F-araA, enzymes of various purities
# [3] = equimolar quantities of substrate
# Chain of E. coli PNP (P0ABP8 whole entry): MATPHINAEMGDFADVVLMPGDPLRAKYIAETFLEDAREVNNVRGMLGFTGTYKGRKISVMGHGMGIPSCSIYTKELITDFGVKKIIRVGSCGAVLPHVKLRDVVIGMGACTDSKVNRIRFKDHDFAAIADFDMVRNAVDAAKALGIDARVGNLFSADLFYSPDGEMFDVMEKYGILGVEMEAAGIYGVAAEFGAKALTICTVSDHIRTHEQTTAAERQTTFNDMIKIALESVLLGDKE
molecule,measurement,setting,value
Cc1ncnc2c1ncn2[C@@H]1O[C@H]([C@H](C)O)[C@@H](O)[C@H]1O [9-[5-methyl-(talo)-β-D-ribofuranosyl]-6-methylpurine],rate of enzymatic cleavage by T. vaginalis PNP,T. vaginalis PNP,"8,400 nanomoles per milligrams per hour"
same,activity of Tv-PNP as compared to wild-type E. coli PNP,T. vaginalis PNP,more activity
same,rate of enzymatic cleavage by E. coli PNP,E. coli PNP,915 nanomoles per milligrams per hour
Cc1ncnc2c1ncn2[C@@H]1O[C@H](CO)[C@@H](O)[C@@H]1O [9-[β-D-arabinofuranosyl]-6-methylpurine],rate of enzymatic cleavage by T. vaginalis PNP,T. vaginalis PNP,570 nanomoles per milligrams per hour
same,rate of enzymatic cleavage by E. coli PNP,E. coli PNP,14 nanomoles per milligrams per hour
"Nc1nc(F)nc2c1ncn2[C@@H]1O[C@@H](CO)[C@@H](O)[C@H]1O [9-α-L-lyxofuranosyl-2-F-adenine, 9-(α-L-lyxofuranosyl)-2-fluoroadenine]",rate of enzymatic cleavage by T. vaginalis PNP,T. vaginalis PNP,"28,200 nanomoles per milligrams per hour"
same,activity of Tv-PNP as compared to wild-type E. coli PNP,T. vaginalis PNP,more activity
same,rate of enzymatic cleavage by E. coli PNP,E. coli PNP,"7,800 nanomoles per milligrams per hour"
Cc1ncnc2c1ncn2[C@@H]1O[C@@H](CO)[C@@H](O)[C@H]1O [9-α-L-lyxofuranosyl-6-methylpurine],rate of enzymatic cleavage by T. vaginalis PNP,T. vaginalis PNP,"10,000 nanomoles per milligrams per hour"
same,rate of enzymatic cleavage by E. coli PNP,E. coli PNP,320 nanomoles per milligrams per hour
Nc1ncnc2c1ncn2[C@@H]1O[C@@H](CO)[C@@H](O)[C@H]1O [9-α-L-lyxofuranosyl-adenine],rate of enzymatic cleavage by T. vaginalis PNP,T. vaginalis PNP,"22,000 nanomoles per milligrams per hour"
same,rate of enzymatic cleavage by E. coli PNP,E. coli PNP,"3,700 nanomoles per milligrams per hour"
Nc1ncnc2c1ncn2[C@@H]1O[C@H](CO)[C@@H](O)[C@@H]1O [9-β-D-arabinofuranosyl-adenine],rate of enzymatic cleavage by T. vaginalis PNP,T. vaginalis PNP,"38,000 nanomoles per milligrams per hour"
same,rate of enzymatic cleavage by E. coli PNP,E. coli PNP,610 nanomoles per milligrams per hour
Nc1nc2c(ncn2[C@@H]2O[C@H](CO)[C@@H](O)[C@@H]2O)c(=O)[nH]1 [9-β-D-arabinofuranosyl-guanine],rate of enzymatic cleavage by T. vaginalis PNP,T. vaginalis PNP,16 nanomoles per milligrams per hour
same,rate of enzymatic cleavage by E. coli PNP,E. coli PNP,310 nanomoles per milligrams per hour
O=c1[nH]cnc2c1ncn2[C@@H]1O[C@H](CO)[C@@H](O)[C@@H]1O [9-β-D-arabinofuranosyl-hypoxanthine],rate of enzymatic cleavage by T. vaginalis PNP,T. vaginalis PNP,48 nanomoles per milligrams per hour
same,rate of enzymatic cleavage by E. coli PNP,E. coli PNP,61 nanomoles per milligrams per hour
Cc1ncnc2c1ncn2[C@@H]1O[C@H](CO)[C@@H](O)[C@H]1O [9-β-D-ribofuranosyl-6-methylpurine],rate of enzymatic cleavage by T. vaginalis PNP,T. vaginalis PNP,"155,000 nanomoles per milligrams per hour"
same,rate of enzymatic cleavage by E. coli PNP,E. coli PNP,"96,000 nanomoles per milligrams per hour"
Nc1ncnc2c1ncn2[C@@H]1O[C@H](CO)[C@H](O)[C@H]1O [9-β-D-xylofuranosyl-adenine],rate of enzymatic cleavage by T. vaginalis PNP,T. vaginalis PNP,2 nanomoles per milligrams per hour
same,rate of enzymatic cleavage by E. coli PNP,E. coli PNP,<2 nanomoles per milligrams per hour
"Nc1nc2c(ncn2[C@@H]2O[C@H](CO)[C@@H](O)[C@H]2O)c(=O)[nH]1 [Guanosine, reference compound]",rate of enzymatic cleavage by T. vaginalis PNP,T. vaginalis PNP,"14,000 nanomoles per milligrams per hour"
same,rate of enzymatic cleavage by E. coli PNP,E. coli PNP,"156,000 nanomoles per milligrams per hour"
"OC[C@H]1O[C@@H](n2cnc3c(O)ncnc32)[C@H](O)[C@@H]1O [Inosine, reference compound]",rate of enzymatic cleavage by T. vaginalis PNP,T. vaginalis PNP,"154,000 nanomoles per milligrams per hour"
same,rate of enzymatic cleavage by E. coli PNP,E. coli PNP,"342,000 nanomoles per milligrams per hour"
B1,MeP-dR rate of cleavage,[1],"9,150 nmoles/mg/hr"
same,F-araA rate of cleavage,[2],20 nmol/mg/h
same,MeP-dR/F-araA cleavage ratio,[2]; [3],458
B2,MeP-dR rate of cleavage,[1],"528,000 nmoles/mg/hr"
same,MeP-dR/F-araA cleavage ratio,[2],422
same,F-araA rate of cleavage,[2],"1,250 nmoles/mg/hr"
B3,MeP-dR rate of cleavage,[1],1823 nmol/mg/h
same,MeP-dR/F-araA cleavage ratio,[2],469±52
same,F-araA rate of cleavage,[2],3.9 nmol/mg/h
same,MeP-dR/F-araA cleavage ratio,[2]; [3],469
same,MeP-dR/F-araA cleavage ratio,[2]; purified enzyme,593
B4,MeP-dR rate of cleavage,[1],"536,000 nmoles/mg/hr"
same,F-araA rate of cleavage,[2],"30,000 nmoles/mg/hr"
same,MeP-dR/F-araA cleavage ratio,[2]; [3],18
B5,MeP-dR rate of cleavage,[1],35 nmol/mg/h
same,F-araA rate of cleavage,[2],<1 nmol/mg/h
same,MeP-dR/F-araA cleavage ratio,[2]; [3],>35
